Source: ChEMBL document CHEMBL1155762, “A new naphthopyrone derivative from Cassia quinquangulata and structural revision of quinquangulin and its glycosides” (2001)
In brackets after ≈: the same amount, converted by molar mass.

What was measured:
[1] = test system: Staphylococcus aureus; assay: Antibacterial activity against methicillin-resistant Staphylococcus aureus ATCC 33591 after 24 hrs; type: functional; conditions: ATCC 33591, 24 h
[2] = test system: Staphylococcus aureus; assay: Antibacterial activity against Staphylococcus aureus ATCC 6538 after 24 hrs; type: functional; conditions: ATCC 6538, 24 h

SMILES	MIC [1] [µg/mL]	MIC [2] [µg/mL]
CO[C@H]1/C=C/O[C@@]2(C)Oc3c(C)c(O)c4c(O)c(c(/C=N/N5CCN(C)CC5)c(O)c4c3C2=O)NC(=O)/C(C)=C\C=C\[C@H](C)[C@H](O)[C@@H](C)[C@@H](O)[C@@H](C)[C@H](OC(C)=O)[C@@H]1C [RIFAMPIN]	< 0.005	0.005 (≈ 0.00608 µM)
COc1cc(O)c2c(O)c3c(=O)cc(C)oc3cc2c1C [QUINQUANGULIN]	6.25 (≈ 21.8 µM)	3.12 (≈ 10.9 µM)
CC[C@H]1OC(=O)[C@H](C)[C@@H](O[C@H]2C[C@@](C)(OC)[C@@H](O)[C@H](C)O2)[C@H](C)[C@@H](O[C@@H]2O[C@H](C)C[C@H](N(C)C)[C@H]2O)[C@](C)(O)C[C@@H](C)C(=O)[C@H](C)[C@@H](O)[C@]1(C)O [ERYTHROMYCIN]		1.25 (≈ 1.7 µM)
